Where a name gives a salt, the structure may show the parent alone.
Assays:
Format in all cases: physicochemical
[1] = Photo stability of bulk substance (Suntest CPS+ cabinet)
Experimental: The exposure was 250 Wh/m^2 and 1.2 million lux hours over 29 hours.

[2] = Solution stability (isotonic solution, HPLC analysis); details: 0.1 mg/ml isotonic solution, ascorbic acid 0.5% (w/v), pH 2 and 4, stored four weeks at 4 to 8° C.; citrate salt
[3] = Hygroscopicity by Dynamic Vapour Sorption Analysis (DVS); details: 25° C., citrate salt
Experimental: Dynamic Vapour Sorption Analysis (DVS)
The studies were undertaken using Dynamic Vapour Sorption Appararatus (DVS, Surface Measurement Systems, London UK). The apparatus consists of Cahn micobalance housed inside a temperature-controled cabinet. All experiments were performed at 25° C. The DVS was used to characterize the moisture uptake (w/w %) at different relative humidities (RH). Samples (5-10 mg) were weighed directly into the DSV sample cup and exposed to different relative humidities.

[4] = 29 hours control sample (stored in the dark)
[5] = exposure time 29 hours, 250 Wh/m^2 and 1.2 million lux hours

Row | photo stability of bulk substance [1, 4] | photo stability of bulk substance ([1]; exposure time 0 hours) | photo stability of bulk substance [1, 5] | degradation in solution [2] | photo stability of bulk substance ([1]; 29 hours control sample (stored in the dark), citrate salt) | photo stability of bulk substance ([1]; exposure time 0 hours, citrate salt) | photo stability of bulk substance ([1]; exposure time 29 hours, 250 Wh/m^2 and 1.2 million lux hours, citrate salt) | moisture uptake ([3]; 40% relative humidity) [w/w %] | moisture uptake ([3]; 60% relative humidity) [w/w %] | moisture uptake ([3]; 80% relative humidity) [w/w %] | SMILES
1 | 96.1 | 96.6 | 83.8 | – | – | – | – | – | – | – | N#Cc1ccc2[nH]c(O)c(-c3ccc(CN4CCOCC4)cn3)c2c1 [Free base, 2-Hydroxy-3-[5-(morpholin-4-ylmethyl)pyridin-2-yl]1H-indole-5-carbonitrile]
2 | – | – | – | no degradation products | 99.1 | 99.0 | 98.1 | 7.1 | 7.6 | 8.0 | N#Cc1ccc2[nH]c(O)c(-c3ccc(CN4CCOCC4)cn3)c2c1 [Citrate, 2-Hydroxy-3-[5-(morpholin-4-ylmethyl)pyridin-2-yl]1H-indole-5-carbonitrile citrate salt]
3 | 97.7 | 97.5 | 89.0 | – | – | – | – | – | – | – | N#Cc1ccc2[nH]c(O)c(-c3ccc(CN4CCOCC4)cn3)c2c1 [HCl]

Source: patent publication US8008294B2 (AstraZeneca AB, priority 2006, dated 2011)
